Data as given in ChEMBL document CHEMBL6096661, “Synthesis, biological evaluation and mechanism study of a novel indole-pyridine chalcone derivative as antiproliferative agent against tumor cells through dual targeting tubulin and HK2” (Eur J Med Chem, 2025).
Activity calls are given as the source filed them. No cut-off for these calls is given here.

Columns and labels:
[1] = system: MDA-MB-231; experiment: Antiproliferative activity against human MDA-MB-231 cells assessed as reduction in cell proliferation incubated for 48 hrs by CCK-8 assay; format: functional, cell-based; settings: MDA-MB-231, 48 h
[2] = target: T1, Tubulin (Homo sapiens) (UniProt P68371+Q9H4B7+P0DPH7+P68366+Q13509+Q71U36+P04350+Q3ZCM7+P07437+P68363+Q9BQE3+Q6PEY2+Q13885+Q9BVA1+Q9BUF5); experiment: Disruption of microtubule network in human MDA-MB-231 cells assessed as reduced microtubule network at 1 uM incubated for 24 hrs by DAPI staining based fluorescence microscopic analysis; format: cell-based
[3] = target: T1, Tubulin (Homo sapiens); experiment: Disruption of microtubule network in human MDA-MB-231 cells assessed as disorganized microtubule network at 1 uM incubated for 24 hrs by DAPI staining based fluorescence microscopic analysis; format: cell-based
[4] = target: T1, Tubulin (Homo sapiens); experiment: Disruption of microtubule network in human MDA-MB-231 cells assessed as atrophy fiber structure at 1 uM incubated for 24 hrs by DAPI staining based fluorescence microscopic analysis; format: cell-based
[5] = target: T1, Tubulin (Homo sapiens); experiment: Disruption of microtubule network in human MDA-MB-231 cells assessed as punctate fiber structure at 1 uM incubated for 24 hrs by DAPI staining based fluorescence microscopic analysis; format: cell-based
[6] = target: T1, Tubulin (Homo sapiens); experiment: Disruption of microtubule network in human MDA-MB-231 cells assessed as point-like fiber structure at 1 uM incubated for 24 hrs by DAPI staining based fluorescence microscopic analysis; format: cell-based
[7] = target: T2, Hexokinase-2 (Homo sapiens) (UniProt P52789); experiment: Inhibition of human HK2 transfected in Escherichia coli BL21 (DE) incubated for 10 mins
T2 sequence (whole entry): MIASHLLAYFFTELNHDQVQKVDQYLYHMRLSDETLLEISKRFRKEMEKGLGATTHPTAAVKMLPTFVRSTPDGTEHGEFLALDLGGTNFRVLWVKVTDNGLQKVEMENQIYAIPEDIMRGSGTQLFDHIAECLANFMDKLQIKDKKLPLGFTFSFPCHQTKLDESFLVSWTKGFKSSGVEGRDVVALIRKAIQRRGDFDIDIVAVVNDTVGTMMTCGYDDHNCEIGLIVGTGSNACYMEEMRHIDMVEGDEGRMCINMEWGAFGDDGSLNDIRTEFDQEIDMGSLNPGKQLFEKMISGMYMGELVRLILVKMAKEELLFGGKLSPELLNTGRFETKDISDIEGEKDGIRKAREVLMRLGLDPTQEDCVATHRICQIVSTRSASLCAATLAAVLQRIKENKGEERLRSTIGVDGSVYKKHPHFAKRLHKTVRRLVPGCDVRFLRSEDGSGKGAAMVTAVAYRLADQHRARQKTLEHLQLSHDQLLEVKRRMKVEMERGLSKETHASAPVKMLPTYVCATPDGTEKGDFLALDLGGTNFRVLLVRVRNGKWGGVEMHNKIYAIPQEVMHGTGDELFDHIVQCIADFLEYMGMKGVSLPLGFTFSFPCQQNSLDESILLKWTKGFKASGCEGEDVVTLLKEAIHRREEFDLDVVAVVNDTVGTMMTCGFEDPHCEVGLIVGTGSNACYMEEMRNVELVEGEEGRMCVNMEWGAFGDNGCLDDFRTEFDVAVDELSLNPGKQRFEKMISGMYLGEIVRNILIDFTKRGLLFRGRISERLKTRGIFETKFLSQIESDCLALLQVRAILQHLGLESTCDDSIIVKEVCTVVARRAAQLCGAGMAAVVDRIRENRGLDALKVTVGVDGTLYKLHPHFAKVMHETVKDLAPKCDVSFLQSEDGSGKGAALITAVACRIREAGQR

[8] = target: T2, Hexokinase-2 (Homo sapiens); experiment: Binding affinity to human HK2 transfected in Escherichia coli BL21 (DE) by pull down assay
[9] = target: Tubulin beta (Homo sapiens) (UniProt P68371+Q9H4B7+Q13509+P04350+Q3ZCM7+P07437+Q13885+Q9BVA1+Q9BUF5+A6NNZ2); experiment: Binding affinity to beta-tubulin (unknown origin) by pull down assay; format: protein assay

Compound	IC50 [1] [µM]	Activity [2]	Activity [3]	Activity [4]	Activity [5]	Activity [6]	inhibition [7]	Activity [8]	Activity [9]
COc1ccc(CCc2cc(OC)c(OC)c(OC)c2)cc1O	1.94	Active	Active	Active	Active	Active	inactive		
O=C1N[C@H]2[C@H](CS[C@H]2CCCCC(=O)N2CCN(c3ccc4c(c3)c(/C=C/C(=O)c3cccnc3)cn4S(=O)(=O)c3ccc([N+](=O)[O-])cc3)CC2)N1								Active	Active
